According to US12540148B2, “Lipophosphonoxins, their preparation and use” (USTAV ORGANICKE CHEMIE A BIOCHEMIE AV CR, V. V. I., priority 2019, dated 2026):
In brackets after ≈: the same amount, converted by molar mass. Structures can show the parent of a compound that is named as a salt. Where two headings read alike, the source gives them in different places.

Legend:
Experiment in all cases: MIC, microdilution method
Assay type in all cases: cell-based
[1] = tested on: Pseudomonas aeruginosa ATCC 27853 = CCM 3955
Method: (§1) Disposable microtiter plates are used for testing. Samples are dissolved in infusion medium from brain and heart (BHI, HiMedia Laboraties Pvt. Ltd., Czech Republic) and Mueller-Hinton broth (HiMedia Laboraties, see above) to a final concentration ranging from 200 μg/ml to 1.5625 μg/ml. Plates are inoculated with a standard amount of test bacteria—the density of the inoculum in the well corresponds to 10^5-6 CFU/ml (colony forming units/ml, i.e. the number of viable bacterial cells/ml). MIC values are read after 24/48 hours of incubation at 37° C. as the minimum inhibitory concentration of the test substance at which bacterial growth is inhibited. The minimum bactericidal concentration (MBC) is characterized as the minimum concentration of the sample required to achieve irreversible inhibition, i.e. to kill the bacteria after a defined incubation period. MBC is determined by the inoculation method. Using an applicator, 10 μl from the well of a microtiter plate with a defined concentration of the test substance is taken to inoculate the surface of blood agar (Trios, Czech Republic). MBC is determined as the lowest concentration that inhibits the visible growth of the bacterium used on agar.

[2] = tested on: Escherichia coli ATCC 25922 = CCM 3954
Method: as §1

[3] = tested on: Staphylococcus aureus 4591
Method: as §1

[4] = tested on: Staphylococcus epidermidis CCM 7221
Method: as §1

[5] = tested on: Enterococcus faecalis ATCC 29212 = CCM 4224
Method: as §1

[6] = tested on: Staphylococcus aureus ATCC 29213 = CCM 4223
Method: as §1

Escherichia coli CE5556 = tested on: Escherichia coli CE5556
Method: as §1

Pseudomonas aeruginosa R = tested on: Pseudomonas aeruginosa R
Method: as §1

Enterobacter kobei 3683 = tested on: Enterobacter kobei 3683
Method: as §1

[7] = tested on: Enterococcus faecium 419/ANA
Method: as §1

[8] = tested on: Candida albicans ATCC 90028 = CCM 8161
[9] = Escherichia coli, 24/48 hours at 37° C.
[10] = Staphylococcus epidermidis, CCM7221
[11] = Pseudomonas aeruginosa, 24/48 hours at 37° C., read-out: MIC
[12] = Escherichia coli, 24/48 hours at 37° C., read-out: MIC
[13] = Staphylococcus aureus, 4591, 24/48 hours at 37° C., read-out: MIC
[14] = Staphylococcus epidermidis, CCM7221, 24/48 hours at 37° C., read-out: MIC
[15] = Enterococcus faecalis, 24/48 hours at 37° C., read-out: MIC
[16] = Staphylococcus aureus, 24/48 hours at 37° C., read-out: MIC
[17] = Escherichia coli, CE5556, 24/48 hours at 37° C., read-out: MIC
[18] = Enterobacter kobei, 3683, 24/48 hours at 37° C., read-out: MIC
[19] = Enterococcus faecium, 419/ANA, 24/48 hours at 37° C., read-out: MIC
[20] = Candida albicans, 24/48 hours at 37° C., read-out: MIC

Compound	MIC ([1]; Pseudomonas aeruginosa) [µg/mL]	MIC [2, 9] [µg/mL]	MIC ([3]; Staphylococcus aureus, 4591) [µg/mL]	MIC [4, 10] [µg/mL]	MIC ([5]; Enterococcus faecalis) [µg/mL]	MIC ([6]; Staphylococcus aureus) [µg/mL]	MIC (Escherichia coli CE5556; Escherichia coli, CE5556) [µg/mL]	MIC (Pseudomonas aeruginosa R; Pseudomonas aeruginosa) [µg/mL]	MIC (Enterobacter kobei 3683; Enterobacter kobei, 3683) [µg/mL]	MIC ([7]; Enterococcus faecium, 419/ANA) [µg/mL]	MIC ([8]; Candida albicans) [µg/mL]	also measured
CCCCCOP(=O)(CCN(CCCN)CCCN)OCCCCCCCCOP(=O)(CCN(CCCN)CCCN)OCCCCC.Cl.Cl.Cl.Cl.Cl.Cl (centres unmarked) [Example 37, Octane-1,8-diyl dipentyl bis((2-(bis(3-aminopropyl)amino)-ethyl)phosphonate) hexahydrochloride]	16	2	2	0.5	16	1	8	64	> 128	> 128	32	MIC ([2]; Escherichia coli, 0% BSA): 2 µg/mL; MIC ([2]; Escherichia coli, 4% BSA): 4 µg/mL; MIC ([6]; 4% BSA): 1 µg/mL; MIC ([6]; 24/48 hours at 37° C.): 1 µg/mL
CCCCCCCCCCCCCCOP(=O)(CCN(CCCNC(=N)N)CCCNC(=N)N)OC[C@H]1O[C@@H](n2ccc(=O)[nH]c2=O)C(O)C1O (some centres unmarked) [DR7030, reference compound]												MIC ([2]; Escherichia coli, 0% BSA, read-out: MIC): 2 µg/mL (≈ 2.68 µM); MIC ([2]; Escherichia coli, 4% BSA, read-out: MIC): > 200 µg/mL; MIC ([6]; Staphylococcus aureus, 0% BSA, read-out: MIC): 2 µg/mL (≈ 2.68 µM); MIC ([6]; Staphylococcus aureus, 4% BSA, read-out: MIC): > 200 µg/mL
CCCCCCOP(=O)(CCN(CCCN)CCCN)OCCCCCCCCCCOP(=O)(CCN(CCCN)CCCN)OCCCCCC.Cl.Cl.Cl.Cl (centres unmarked) [Example 43, Decane-1,10-diyl dihexyl bis((2-(bis(3-aminopropyl)amino)-ethyl)phosphonate) tetrahydrochloride]	1	0.5	0.5	0.5	0.5	0.5	1	1	1	1	1	
C=CP(=O)(OCCCCCCCCCCOP(=O)(C=C)OCC(C)C)OCC(C)C (centres unmarked) [Example 39, Decane-1,10-diyl diisobutyl bis(vinylphosphonate)]												MIC [1, 11]: 128 µg/mL (≈ 274 µM); MIC [2, 12]: 128 µg/mL (≈ 274 µM); MIC [3, 13]: 16 µg/mL (≈ 34.3 µM); MIC [4, 14]: 8 µg/mL (≈ 17.1 µM); MIC [5, 15]: 64 µg/mL (≈ 137 µM); MIC [6, 16]: 32 µg/mL (≈ 68.6 µM); MIC (Escherichia coli CE5556; [17]): 128 µg/mL (≈ 274 µM); MIC (Pseudomonas aeruginosa R; [11]): 64 µg/mL (≈ 137 µM); MIC (Enterobacter kobei 3683; [18]): > 128 µg/mL; MIC [7, 19]: 128 µg/mL (≈ 274 µM); MIC [8, 20]: > 128 µg/mL
CCCCOP(=O)(CCN(CCN)CCN)OCCCCCCCCCCOP(=O)(CCN(CCN)CCN)OCCCC.Cl.Cl.Cl.Cl.Cl.Cl (centres unmarked) [Example 56, Dibutyl decane-1,10-diyl bis((2-(bis(2-aminoethyl)amino)ethyl)phosphonate) hexahydrochloride]	4	4	4	4	2	2	4	8	16	4	4	
CCCCOP(=O)(CCN(CCCN)CCCN)OCCCCCCCCCCCCCCOP(=O)(CCN(CCCN)CCCN)OCCCC.Cl.Cl.Cl.Cl.Cl.Cl (centres unmarked) [Example 52, Dibutyl tetradecane-1,14-diyl bis((2-(bis(3-aminopropyl)amino)ethyl)phosphonate) hexahydrochloride]	4	2	1	0.5	1	1	2	2	8	2	4	
Hexan-1,8-diyl dihexyl bis((2-(bis(3-aminopropyl)amino)ethyl)phosphonate) hexahydrochloride [Example 35]												MIC ([1]; 24/48 hours at 37° C.): 2 µg/mL; MIC ([2]; 24/48 hours at 37° C.): 0.5 µg/mL; MIC ([3]; 24/48 hours at 37° C.): 1 µg/mL; MIC ([4]; 24/48 hours at 37° C.): 0.5 µg/mL; MIC ([5]; 24/48 hours at 37° C.): 1 µg/mL; MIC ([6]; 24/48 hours at 37° C.): 0.5 µg/mL; MIC (Escherichia coli CE5556; 24/48 hours at 37° C.): 1 µg/mL; MIC (Pseudomonas aeruginosa R; 24/48 hours at 37° C.): 2 µg/mL; MIC (Enterobacter kobei 3683; 24/48 hours at 37° C.): 2 µg/mL; MIC ([7]; 24/48 hours at 37° C.): 8 µg/mL; MIC ([8]; 24/48 hours at 37° C.): 16 µg/mL
CCCCCOP(=O)(CCN(CCCN)CCCN)OCCCCCCCCCCOP(=O)(CCN(CCCN)CCCN)OCCCCC.Cl.Cl.Cl.Cl.Cl.Cl (centres unmarked) [Example 42, Decane-1,10-diyl dipentyl bis((2-(bis(3-aminopropyl)amino)-ethyl)phosphonate) hexahydrochloride]	4	2	1	0.5	4	0.5	8	8	64	32	16	
Hexan-1,8-diyl dioctyl bis((2-(bis(3-aminopropyl)amino)ethyl)phosphonate) hexahydrochloride [Example 36]												MIC ([1]; 24/48 hours at 37° C.): >128 µg/mL; MIC ([2]; 24/48 hours at 37° C.): 128 µg/mL; MIC ([3]; 24/48 hours at 37° C.): 8 µg/mL; MIC ([4]; 24/48 hours at 37° C.): 4 µg/mL; MIC ([5]; 24/48 hours at 37° C.): >128 µg/mL; MIC ([6]; 24/48 hours at 37° C.): 16 µg/mL; MIC (Escherichia coli CE5556; 24/48 hours at 37° C.): >128 µg/mL; MIC (Pseudomonas aeruginosa R; 24/48 hours at 37° C.): 128 µg/mL; MIC (Enterobacter kobei 3683; 24/48 hours at 37° C.): >128 µg/mL; MIC ([7]; 24/48 hours at 37° C.): >128 µg/mL; MIC ([8]; 24/48 hours at 37° C.): 128 µg/mL
CCCCOP(=O)(CCN(CCCN)CCCN)OCCCCCCCCCCOP(=O)(CCN(CCCN)CCCN)OCCCC.Cl.Cl.Cl.Cl.Cl.Cl (centres unmarked) [Example 41, Dibutyl decane-1,10-diyl bis((2-(bis(3-aminopropyl)amino)ethyl)phosphonate) hexahydrochloride]	16	64	2	1	32	2	128	8	> 128	128	64	
CCCCCCCCCCOP(=O)(CCN(CCCN)CCCN)OCCCCCCCCCCOP(=O)(CCN(CCCN)CCCN)OCCCCCCCCCC (centres unmarked) [Example 45, Decan-1,10-diyl didecyl bis((2-(bis(3-aminopropyl)amino)ethyl)-phosphonate) tetrahydrochloride]	32		4	1	32	4	> 128	16	> 128	128	64	MIC ([2]; Escherichia coli): > 128 µg/mL
C=CP(=O)(OCCCCCCCCCCCCOP(=O)(C=C)OCC(C)C)OCC(C)C (centres unmarked) [Example 34, Diisobutyl dodecane-1,12-diyl bis(vinylphosphonate)]												MIC [1, 11]: > 128 µg/mL; MIC [2, 12]: 32 µg/mL (≈ 64.7 µM); MIC [3, 13]: 16 µg/mL (≈ 32.4 µM); MIC [4, 14]: 4 µg/mL (≈ 8.09 µM); MIC [5, 15]: 128 µg/mL (≈ 259 µM); MIC [6, 16]: 8 µg/mL (≈ 16.2 µM); MIC (Escherichia coli CE5556; [17]): 128 µg/mL (≈ 259 µM); MIC (Pseudomonas aeruginosa R; [11]): > 128 µg/mL; MIC (Enterobacter kobei 3683; [18]): > 128 µg/mL; MIC [7, 19]: > 128 µg/mL; MIC [8, 20]: 128 µg/mL (≈ 259 µM)
CCCCCOP(=O)(CCN(CCCN)CCCN)OCCCCCCCCCCCCCCOP(=O)(CCN(CCCN)CCCN)OCCCCC.Cl.Cl.Cl.Cl.Cl.Cl (centres unmarked) [Example 53, Tetradecane-1,14-diyl dipentyl bis((2-(bis(3-aminopropyl)amino)ethyl)-phosphonate) hexahydrochloride]	2	1	1	0.5	1	0.5	1	4	2	2	2	
